Source: patent publication US11608320B2, “Oxazolidinone hydroxamic acid derivatives” (KUWAIT UNIVERSITY, priority 2020, dated 2023)

Tests used:
[1] = test system: LTC4 release from IgE/antigen-activated mouse mast cells (BMMC); assay: Inhibition of LTC4 release in allergen/IgE-activated bone marrow-derived mouse mast cells; type: cell-based; details: BMMC, anti-DNP IgE sensitized, DNP-BSA 30 ng/ml, 30 min
Excerpt: (§1) Inhibition of LTC4 release and degranulation in allergen/IgE-activated bone marrow-derived mouse mast cells (BMMC): Bone marrow-derived mast cells (BMMC) were generated from pathogen-free 5-7 week old male Balb/c mice according to the method of Davis et al., [2004] (Davis, B. J., et al., (2004), Journal of Immunology, 173: 6914-6920). Essentially, bone marrow cells were obtained by flushing of the femoral bone marrow and cultured in RPMI 1640 medium supplemented with 10% FBS, 100 U/ml penicillin, and 100 μg/ml streptomycin, 25 mM HEPES, 1.0 mM sodium pyruvate, 0.1 mM nonessential amino acids, 0.0035% 2-mercaptoethanol, and 30 ng/ml mouse recombinant IL-3, with culture medium replaced every two days. Cells were used after 4-8 weeks of culture, by which time at least 97% of the cells would have differentiated into mast cells.
(§2) The generated BMMCs were seeded at 5×10^4 cells/well in a 96-well flat-bottom culture plate and passively sensitized overnight with 0.5 μg/ml anti-DNP monoclonal IgE antibody (clone SPE-7, Sigma-Aldrich, St. Louis, Mo., USA). The cells were then washed twice to remove any unbound antibody and subsequently re-suspended in reaction buffer (135 mM NaCl, 5 mM KCl, 1.8 mM CaCl2), 1 mM MgCl2, 5.6 mM glucose, 0.05% BSA and 20 mM HEPES, pH 7.4). They were then pre-incubated with the test compounds (0.01-30 μM) or the solvent (0.05% DMSO) for 15 min before being stimulated with the specific antigen, DNP-BSA (30 ng/ml). After 30 min incubation at 37° C., the amount of LTC4 released into the supernatant (as index of 5-LO activity) was determined by ELISA as described below.
Assay of released leukotrienes/β-hexoseaminidase enzyme: Appropriately diluted supernatants were assayed for the released LTs (LTB4 and LTC4), by the enzyme immunoassay (EIA) method using assay kits supplied by R&D Systems (Minneapolis, Minn., USA) and following the manufacturer's instructions.

[2] = test system: degranulation of bone marrow-derived mouse mast cells; assay: Inhibition of degranulation (β-hexoseaminidase release) in allergen/IgE-activated BMMC; type: cell-based; details: anti-DNP IgE sensitized, DNP-BSA 30 ng/ml, 30 min
Excerpt: as §1
as §2, with “They were then pre-incubated with the test compounds (0.01-30 μM) or the solvent (0.05% DMSO) for 15 min before being stimulated with the specific antigen, DNP-BSA (30 ng/ml).” left out
The concurrently-released granular enzyme, β-hexoseaminidase (as index of degranulation) was determined as described below.
The beta-hexoseaminidase released into the supernatant by the degranulating BMMCs was determined colorimetrically using p-nitrophenyl-N-acetyl-β-D-glucosaminide as substrate. […] The absorbance of the colored product (p-nitrophenol) was then read at 405 nm in a microplate reader. Results were expressed as percentage of the total cell content (determined in cells lysed with 0.1% triton-x-100).

[3] = test system: zymosan-induced peritonitis; assay: Zymosan-induced peritoneal inflammation in mice; type: in vivo, mouse; details: 30 min before zymosan i.p., peritoneal exudate at 2 h
Excerpt: Inhibition of zymosan-induced peritoneal inflammation in mice: Female Balb/c mice, 6-8 weeks old, obtained from the Animal Resources Center of the Health Sciences Center, Kuwait University, were used. They were maintained under temperature-controlled conditions with an artificial 12-h light/dark cycle and allowed standard chow and water ad libitum. The study protocol was approved by the “Health Sciences Center Animal Welfare Committee” and complied with the “Guidelines for the Care and Use of Laboratory Animals” of the Health Sciences Centre, Kuwait University. The zymosan-induced peritonitis model-a recognized LT-mediated inflammatory reaction, described particularly in Hanke et al., 2013 ([…]., et al. (2013). Journal of medicinal chemistry, 56(22), 9031-9044) was used. […] After 30 min, all groups were injected intraperitonally with 0.2 ml of activated zymosan (2 mg/ml) except the control group that received 0.2 ml PBS. After 2 h, all animals were killed and the peritoneal exudate was collected by washing the cavity with 3 ml of heparinized (10 IU/ml) PBS.

[4] = test system: antigen-induced airway hyperresponsiveness to methacholine; assay: Allergen-induced airway hyperresponsiveness (AHR) in mouse model of asthma; type: in vivo; details: 15 or 30 mg/kg s.c., 1 h before and 1 h after each ovalbumin challenge
Protocol: Inhibition of allergen-induced Airway hyperresponsiveness (AHR) and inflammation in mouse model of asthma; Immunization, challenge and drug treatment: Female mice, as specified above, were immunized intraperitoneally (i.p.) with 10 μg ovalbumin mixed with 0.2 ml of aluminum hydroxide gel (Alu-Gel-S; SERVA Electrophoresis GmbH, Heidelberg, Germany), on day 0 and repeated on day 7. On day 14, after the start of immunization, the animals were challenged intra-nasally, once a day for 4 consecutive days, with 50 μl of 0.06% ovalbumin solution in PBS. Control animals were similarly immunized with PBS and challenged intra-nasally with 50 μl PBS. All intra-nasal administrations were done following light anesthesia with halothane.
The animals were divided into 5 groups A-E (10-14 animals per group). […]
Different treatment groups were used for the AHR and cytology/histology studies. Twenty four hours after the last intra-nasal challenge/drug treatment, lung function was measured in some animals while in others bronchoalveolar lavage (BAL), cytology and histology were performed after they were sacrificed with overdose of halothane.
Measurement of AHR: AHR was measured in individual mice using a Finepoint Series RC site (Buxco Research Systems, Wilmington, N.C., USA), according to the manufacturer's guidelines. […]

CCCCCCCC(=O)N(O)C[C@H]1CN(c2ccc(N3CCOCC3)c(F)c2)C(=O)O1 [PH-251, (R)—N-((3-(3-fluoro-4-morpholinophenyl)-2-oxooxazolidin-5-yl)methyl)-N-hydroxyoctanamide]
Inhibition of generation of LTC4 from IgE/allergen-activated mast cells (FIG. 2A) [1]: equally effective in inhibiting the generation of LTC4 | Inhibition of degranulation (release of granular β-hexoseaminidase) (FIG. 2B) [2]: able to inhibit degranulation | Net Exudate Vol ([3]; 3 mg/kg s.c.): 0.24 ± 0.05 mL | Total Cell No ([3]; 3 mg/kg s.c.): 21.1 ± 1.6 ×10^6 | Total LTC4 ([3]; 3 mg/kg s.c.): 101.7 ± 20.2 ng | Net Exudate Vol ([3]; 10 mg/kg s.c.): 0.12 ± 0.08 mL | Total Cell No ([3]; 10 mg/kg s.c.): 16.4 ±17 ×10^6 | Total LTC4 ([3]; 10 mg/kg s.c.): 77.4 ± 16.8 ng | Net Exudate Vol ([3]; 30 mg/kg s.c.): 0.04 ± 0.02 mL | Total Cell No ([3]; 30 mg/kg s.c.): 17.6 ± 2.1 ×10^6 | Total LTC4 ([3]; 30 mg/kg s.c.): 33.9 ± 4.9 ng | Development of antigen-induced AHR to inhaled methacholine (FIGS. 4A-4B) [4]: almost completely abolished the development of AHR | melting point: 119 to 122 °C
